Measured values from US20230398130A1, “METHODS AND COMPOSITIONS FOR DIFFERENTIATING STEM CELLS” (Massachusetts Institute of Technology, priority 2020, published 2023).

Key:
[1] = test system: ISC-enriched organoids; experiment: Primary screen, 384-well 2.5-D organoid differentiation (ENR+CD, 6 days, Target Selective Inhibitor Library, vs whole-plate median): ATP (CellTiter-Glo 3D, CTG); conditions: primary screen; for Dose.FC.CTG (log 2 fold change): vs plate median
[2] = test system: ISC-enriched organoids; experiment: Primary screen, 384-well 2.5-D organoid differentiation (ENR+CD, 6 days): carbachol-induced lysozyme secretion (LYZ.S); format: cell-based, murine; conditions: primary screen, vs plate median
Text: (§1) High-throughput screening.

[3] = test system: ISC-enriched organoids; experiment: Primary screen, 384-well 2.5-D organoid differentiation (ENR+CD, 6 days): basal lysozyme secretion (LYZ.NS); format: cell-based, murine; conditions: primary screen; for Dose.FC.LYZ.NS (log 2 fold change): vs plate median
Text: as §1

Structure (SMILES)	Z.CTG (standard z score) ([1]; Dose 0.08 uM)	Dose.FC.CTG (log 2 fold change) ([1]; Dose 0.08 uM)	Z.CTG (standard z score) ([1]; Dose 0.40 uM)	Dose.FC.CTG (log 2 fold change) ([1]; Dose 0.40 uM)	Z.CTG (standard z score) ([1]; Dose 2.00 uM)	Dose.FC.CTG (log 2 fold change) ([1]; Dose 2.00 uM)	Z.CTG (standard z score) ([1]; Dose 10.00 uM)	Dose.FC.CTG (log 2 fold change) ([1]; Dose 10.00 uM)	Dose.FC.LYZ.S (log 2 fold change) ([2]; Dose 0.08 uM)	Dose.FC.LYZ.S (log 2 fold change) ([2]; Dose 0.40 uM)	Dose.FC.LYZ.S (log 2 fold change) ([2]; Dose 2.00 uM)	Dose.FC.LYZ.S (log 2 fold change) ([2]; Dose 10.00 uM)	Z.LYZ.NS (standard z score) ([3]; Dose 0.08 uM)	Dose.FC.LYZ.NS (log 2 fold change) ([3]; Dose 0.08 uM)	Z.LYZ.NS (standard z score) ([3]; Dose 0.40 uM)	Dose.FC.LYZ.NS (log 2 fold change) ([3]; Dose 0.40 uM)	Z.LYZ.NS (standard z score) ([3]; Dose 2.00 uM)	Dose.FC.LYZ.NS (log 2 fold change) ([3]; Dose 2.00 uM)	Z.LYZ.NS (standard z score) ([3]; Dose 10.00 uM)	Dose.FC.LYZ.NS (log 2 fold change) ([3]; Dose 10.00 uM)
Cc1nn(-c2ccccc2)c(C)c1/C=N/N1CCN(Cc2ccccc2)CC1 [SANT-1]	0.736	0.308	0.186	0.078	0.327	0.137	−0.100	−0.042	0.112	0.024	0.101	−0.120	0.485	0.056	0.002	0.000	1.528	0.175	−0.430	−0.049
CCn1c(N)c(C(=O)NC)c(=O)c2ccc(C#C[C@@](C)(O)COC)nc21 [SAR131675]	0.419	0.175	−0.201	−0.084	0.169	0.071	0.149	0.062	0.148	0.096	0.026	0.000	0.483	0.055	0.774	0.089	0.181	0.021	−0.766	−0.088
C[S+]([O-])c1ccc(-c2nc(-c3ccc(F)cc3)c(-c3ccncc3)[nH]2)cc1 (stereo not drawn) [SB203580]	0.479	0.201	0.356	0.149	0.567	0.237	0.435	0.182	0.148	0.098	0.077	0.069	0.805	0.092	1.109	0.127	0.453	0.052	0.199	0.023
